From ChEMBL document CHEMBL1140041, “Flavylium salts as in vitro precursors of potent ligands to brain GABA-A receptors” (Bioorg Med Chem Lett, 2008)
Active and inactive are the calls of the source. No cut-off for these calls is given here.

Assays:
Assay type in all cases: cell membranes
[1] = Displacement of [3H]flumazenil from GABAA receptor in Wistar rat cortical membrane
[2] = Displacement of [3H]flumazenil from GABAA receptor in Wistar rat cortical membrane preincubated for 24 hrs
[3] = Displacement of [3H]flumazenil from GABAA receptor in Wistar rat cortical membrane preincubated for 15 mins
Rattus norvegicus = species on record: Rattus norvegicus; assay: Displacement of [3H]flumazenil from GABAA receptor in Wistar rat cortical membrane at 10 uM

| SMILES | Ki [1] [nM] | also measured |
| --- | --- | --- |
| COc1ccc2ccc(-c3ccccc3)[o+]c2c1 | 1800 |  |
| Oc1ccc(-c2ccc3cc(O)ccc3[o+]2)cc1 | 1500 |  |
| COc1ccc(-c2ccc3ccc(OC)cc3[o+]2)cc1 | 1200 |  |
| COc1ccc(-c2ccc3cc(Br)ccc3[o+]2)cc1 | 140 | Ki [2]: 66 nM; Ki [3]: 66 nM |
| COc1ccc2[o+]c(-c3ccc(OC)c(OC)c3)ccc2c1 |  | Activity (Rattus norvegicus): inactive |
| COc1ccc(-c2ccc3ccccc3[o+]2)cc1OC |  | Activity (Rattus norvegicus): inactive |
| COc1ccc2[o+]c(-c3ccccc3)ccc2c1 | 180 |  |
| COc1ccc(C(=O)/C=C/c2cc(OC)ccc2O)cc1 |  | Ki [2]: 28 nM |
| Oc1ccc2ccc(-c3ccccc3)[o+]c2c1 | 260 |  |
| Oc1ccc(-c2ccc3ccc(O)c(O)c3[o+]2)cc1 |  | Activity (Rattus norvegicus): inactive |
| COc1ccc(-c2ccc3cc(O)ccc3[o+]2)cc1 | 320 |  |
| COc1ccc(-c2ccc3cc(OC)ccc3[o+]2)cc1 | 60 | Ki [2]: 18 nM; Ki [3]: 18 nM |
| COc1ccc(-c2ccc3ccccc3[o+]2)cc1 | 480 |  |
| COc1ccc(-c2ccc3cc(OC)c(O)cc3[o+]2)cc1 | 7800 |  |
| Oc1ccc(-c2ccc3ccc(O)cc3[o+]2)cc1 | 280 |  |
| COc1ccc2[o+]c(-c3ccc(O)cc3)ccc2c1 | 160 |  |
| COc1cc(-c2ccc3ccccc3[o+]2)cc(OC)c1OC |  | Activity (Rattus norvegicus): inactive |
| Oc1ccc(-c2ccc3cccc(O)c3[o+]2)cc1 |  | Activity (Rattus norvegicus): inactive |
